pIC50: −log10 of the molar value.
These molecules were tested against Recombinant N-terminal GST tag full-length human HDAC11 (Homo sapiens (Human), UniProt Q96DB2) (assay: Probe binding HDAC11 assay, time resolved fluorescence (TRF)). Details: read-out: HDAC11 IC50 Range.
Chain of Recombinant N-terminal GST tag full-length human HDAC11 (Q96DB2 whole entry): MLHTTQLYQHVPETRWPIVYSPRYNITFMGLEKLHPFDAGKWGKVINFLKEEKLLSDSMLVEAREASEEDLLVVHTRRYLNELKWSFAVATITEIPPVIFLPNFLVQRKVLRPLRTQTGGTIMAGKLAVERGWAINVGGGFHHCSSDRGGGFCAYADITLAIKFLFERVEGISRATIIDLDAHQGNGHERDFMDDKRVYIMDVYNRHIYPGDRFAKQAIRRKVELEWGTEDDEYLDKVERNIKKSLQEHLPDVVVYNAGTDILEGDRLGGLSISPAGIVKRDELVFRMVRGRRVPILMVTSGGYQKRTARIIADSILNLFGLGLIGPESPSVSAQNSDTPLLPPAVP
Procedure: The probe binding HDAC11 assay was performed using a time resolved fluorescence (TRF) assay format. Recombinant N-terminal GST tag full-length human HDAC11 was expressed and purified from baculovirus in Sf9 insect cells (SignalChem, # H93-30G-1000). Each assay was performed in 1536 black well microplates (Corning, #3936) in a final volume of 8 μL in assay buffer containing 50 mM HEPES (pH 7.5), 50 mM KCl, 50 mM NaCl, 0.5 mM GSH (L-Glutathione reduced, Sigma #G4251), 0.03% BGG (0.22 μM filtered, Sigma, #G7516-25G), and 0.01% Triton X-100 (Sigma, #T9284-10L). 100 nL of 10-point, 3-fold serial dilution in DMSO was pre-dispensed into respective wells of 1536 assay plates for a final test concentration range of 25 μM to 1.3 nM respectively. The final concentration in the assay of HDAC11 and probe (a fluorescein labeled HDAC 11 inhibitor) was 2.5 nM and 20 nM respectively. 4 μL of 2× probe and 2× anti-GST Terbium (Cisbio, #61GSTXLB) was added to assay plates followed by 4 μL of 2×HDAC11. Plates were incubated for 16 hours at room temperature before time resolved fluorescence was read on the Envision (Excitation at 340 nm, and Emission at 485 nm and 535 nm, Perkin Elmer).
Data from HDAC11 Assays were reported as percent inhibition (inh) compared with control wells based on the following equation: % inh=1−((FLU−AveLow)/(AveHigh−AveLow)) where FLU=measured time resolved fluorescence. AveLow=average time resolved fluorescence of no enzyme control (n=32). AveHigh=average time resolved fluorescence of DMSO control (n=32). IC50 values were determined by curve fitting of the standard 4 parameter logistic fitting algorithm included in the Activity Base software package: IDBS XE Designer Model205. Data is fitted using the Levenburg Marquardt algorithm.
With `NS(=O)(=O)c1ccc2[nH]c(Nc3cccc(C(=O)NO)c3)nc2c1` [Example 33-24, N-hydroxy-3-((5-sulfamoyl-1H-benzo[d]imidazol-2-yl)amino)benzamide] the pIC50 was < 6.00. `CN(c1cccc(C(=O)NO)c1)c1nc2cc(-c3cccnc3)c(C(F)(F)F)cc2n1C` [Example 34-1, N-hydroxy-3-(methyl(1-methyl-5-(pyridin-3-yl)-6-(trifluoromethyl)-1H-benzo[d]imidazol-2-yl)amino)benzamide] was tested, and the pIC50 was < 6.00. `CN(c1cccc(C(=O)NO)c1)c1nc2cc(C(F)(F)F)c(-c3cccnc3)cc2n1C` [Example 34-2, N-hydroxy-3-(methyl(1-methyl-6-(pyridin-3-yl)-5-(trifluoromethyl)-1H-benzo[d]imidazol-2-yl)amino)benzamide] was tested, and the pIC50 was < 6.00. Work on `CN(c1cccc(C(=O)NO)c1)c1nc2cc(C(F)(F)F)c(-c3ccccc3)cc2n1C` [Example 34-3, N-hydroxy-3-(methyl(1-methyl-6-phenyl-5-(trifluoromethyl)-1H-benzo[d]imidazol-2-yl)amino)benzamide] yielded a pIC50 of 6.00 to 6.30. In the case of `Cn1c(Nc2cccc(C(=O)NO)c2)nc2cc(-c3cccnc3)c(C(F)(F)F)cc21` [Example 35-1, N-hydroxy-3-((1-methyl-5-(pyridin-3-yl)-6-(trifluoromethyl)-1H-benzo[d]imidazol-2-yl)amino)benzamide], the pIC50 was 6.00 to 6.30. In the case of `Cn1c(Nc2cccc(C(=O)NO)c2)nc2cc(C(F)(F)F)c(-c3cccnc3)cc21` [Example 35-2, N-hydroxy-3-((1-methyl-6-(pyridin-3-yl)-5-(trifluoromethyl)-1H-benzo[d]imidazol-2-yl)amino)benzamide], the pIC50 was > 6.30. `Cn1c(Nc2cccc(C(=O)NO)c2)nc2cc(C(F)(F)F)c(-c3ccccc3)cc21` [Example 35-3, N-hydroxy-3-((1-methyl-6-phenyl-5-(trifluoromethyl)-1H-benzo[d]imidazol-2-yl)amino)benzamide] was tested, and the pIC50 was > 6.30. With `O=C(NO)c1cccc(Nc2nc3cc(-c4ccccc4)c(C(F)(F)F)cc3[nH]2)c1` [Example 36-1, N-hydroxy-3-((5-phenyl-6-(trifluoromethyl)-1H-benzo[d]imidazol-2-yl)amino)benzamide] the pIC50 was > 6.30. In the case of `O=C(NO)c1cccc(Nc2nc3cc(C(F)(F)F)c(-c4cccnc4)cc3[nH]2)c1` [Example 36-2, N-hydroxy-3-((6-(pyridin-3-yl)-5-(trifluoromethyl)-1H-benzo[d]imidazol-2-yl)amino)benzamide], the pIC50 was > 6.30. In the case of `O=C(NO)c1cccc(Nc2nc3cc(-c4ccncc4)c(C(F)(F)F)cc3[nH]2)c1` [Example 36-3, N-hydroxy-3-((5-(pyridin-4-yl)-6-(trifluoromethyl)-1H-benzo[d]imidazol-2-yl)amino)benzamide], the pIC50 was > 6.30. In the case of `CCOc1cccc(-c2cc3[nH]c(Nc4cccc(C(=O)NO)c4)nc3cc2C(F)(F)F)c1` [Example 36-4, 3-((6-(3-ethoxyphenyl)-5-(trifluoromethyl)-1H-benzo[d]imidazol-2-yl)amino)-N-hydroxybenzamide], the pIC50 was > 6.30. `CSc1ccc(-c2cc3[nH]c(Nc4cccc(C(=O)NO)c4)nc3cc2C(F)(F)F)cc1` [Example 36-5, N-hydroxy-3-((6-(4-(methylthio)phenyl)-5-(trifluoromethyl)-1H-benzo[d]imidazol-2-yl)amino)benzamide] was tested, and the pIC50 was > 6.30. `CN(C)C(=O)c1ccc(-c2cc3[nH]c(Nc4cccc(C(=O)NO)c4)nc3cc2C(F)(F)F)cc1` [Example 36-6, 4-(2-((3-(hydroxycarbamoyl)phenyl)amino)-5-(trifluoromethyl)-1H-benzo[d]imidazol-6-yl)-N,N-dimethylbenzamide] was tested, and the pIC50 was > 6.30. For `COCc1ccc(-c2cc3[nH]c(Nc4cccc(C(=O)NO)c4)nc3cc2C(F)(F)F)cc1` [Example 36-7, N-hydroxy-3-((6-(4-(methoxymethyl)phenyl)-5-(trifluoromethyl)-1H-benzo[d]imidazol-2-yl)amino)benzamide], the pIC50 was > 6.30. With `O=C(NO)c1cccc(Nc2nc3cc(C(F)(F)F)c(-c4ccc5ncccc5c4)cc3[nH]2)c1` [Example 36-8, N-hydroxy-3-((6-(quinolin-6-yl)-5-(trifluoromethyl)-1H-benzo[d]imidazol-2-yl)amino)benzamide] the pIC50 was > 6.30. For `O=C(NO)c1cccc(Nc2nc3cc(C(F)(F)F)c(-c4ccc5c(c4)OCCO5)cc3[nH]2)c1` [Example 36-9, 3-((6-(2,3-dihydrobenzo[b][1,4]dioxin-6-yl)-5-(trifluoromethyl)-1H-benzo[d]imidazol-2-yl)amino)-N-hydroxybenzamide], the pIC50 was > 6.30. In the case of `O=C(NO)c1cccc(Nc2nc3cc(C(F)(F)F)c(-c4cccc(O)c4)cc3[nH]2)c1` [Example 36-10, N-hydroxy-3-((6-(3-hydroxyphenyl)-5-(trifluoromethyl)-1H-benzo[d]imidazol-2-yl)amino)benzamide], the pIC50 was > 6.30. In the case of `O=C(NO)c1cccc(Nc2nc3cc(C(F)(F)F)c(-c4ccccc4CO)cc3[nH]2)c1` [Example 36-11, N-hydroxy-3-((6-(2-(hydroxymethyl)phenyl)-5-(trifluoromethyl)-1H-benzo[d]imidazol-2-yl)amino)benzamide], the pIC50 was > 6.30. `CN(C)c1ccc(-c2cc3[nH]c(Nc4cccc(C(=O)NO)c4)nc3cc2C(F)(F)F)cn1` [Example 36-12, 3-((6-(6-(dimethylamino)pyridin-3-yl)-5-(trifluoromethyl)-1H-benzo[d]imidazol-2-yl)amino)-N-hydroxybenzamide] was tested, and the pIC50 was > 6.30. With `O=C(NO)c1cccc(Nc2nc3cc(C(F)(F)F)c(-c4cnc(N5CCOCC5)nc4)cc3[nH]2)c1` [Example 36-13, N-hydroxy-3-((6-(2-morpholinopyrimidin-5-yl)-5-(trifluoromethyl)-1H-benzo[d]imidazol-2-yl)amino)benzamide] the pIC50 was > 6.30. `O=C(NO)c1cccc(Nc2nc3cc(C(F)(F)F)c(-c4cccc(C(=O)N5CCOCC5)c4)cc3[nH]2)c1` [Example 36-14, N-hydroxy-3-((6-(3-(morpholine-4-carbonyl)phenyl)-5-(trifluoromethyl)-1H-benzo[d]imidazol-2-yl)amino)benzamide] was tested, and the pIC50 was > 6.30. For `O=C(NO)c1cccc(Nc2nc3cc(C(F)(F)F)c(-c4cc(F)ccc4CO)cc3[nH]2)c1` [Example 36-15, 3-((6-(5-fluoro-2-(hydroxymethyl)phenyl)-5-(trifluoromethyl)-1H-benzo[d]imidazol-2-yl)amino)-N-hydroxybenzamide], the pIC50 was > 6.30. In the case of `COCc1cccc(-c2cc3[nH]c(Nc4cccc(C(=O)NO)c4)nc3cc2C(F)(F)F)c1` [Example 36-16, N-hydroxy-3-((6-(3-(methoxymethyl)phenyl)-5-(trifluoromethyl)-1H-benzo[d]imidazol-2-yl)amino)benzamide], the pIC50 was > 6.30. In the case of `Cn1ncc2ccc(-c3cc4[nH]c(Nc5cccc(C(=O)NO)c5)nc4cc3C(F)(F)F)cc21` [Example 36-17, N-hydroxy-3-((6-(1-methyl-1H-indazol-6-yl)-5-(trifluoromethyl)-1H-benzo[d]imidazol-2-yl)amino)benzamide], the pIC50 was > 6.30. For `CN(C)C(=O)c1cccc(-c2cc3[nH]c(Nc4cccc(C(=O)NO)c4)nc3cc2C(F)(F)F)c1` [Example 36-18, 3-(2-((3-(hydroxycarbamoyl)phenyl)amino)-5-(trifluoromethyl)-1H-benzo[d]imidazol-6-yl)-N,N-dimethylbenzamide], the pIC50 was > 6.30. With `O=C(NO)c1cccc(Nc2nc3cc(C(F)(F)F)c(-c4ccc(N5CCOCC5)cc4)cc3[nH]2)c1` [Example 36-19, N-hydroxy-3-((6-(4-morpholinophenyl)-5-(trifluoromethyl)-1H-benzo[d]imidazol-2-yl)amino)benzamide] the pIC50 was > 6.30. `O=C(NO)c1cccc(Nc2nc3cc(C(F)(F)F)c(-c4ccoc4)cc3[nH]2)c1` [Example 36-20, 3-((6-(furan-3-yl)-5-(trifluoromethyl)-1H-benzo[d]imidazol-2-yl)amino)-N-hydroxybenzamide] was tested, and the pIC50 was > 6.30. `O=C(NCc1ccccc1)ONC(=O)c1cccc(Nc2nc3cc(-c4ccccc4)c(C(F)(F)F)cc3[nH]2)c1` [Example 37-1, N-((benzylcarbamoyl)oxy)-3-((5-phenyl-6-(trifluoromethyl)-1H-benzo[d]imidazol-2-yl)amino)benzamide] was tested, and the pIC50 was > 6.30. In the case of `CN(c1cccc(C(=O)NOC(=O)NCc2ccccc2)c1)c1nc2cc(C#N)c(C(F)(F)F)cc2[nH]1` [Example 37-2, N-((benzylcarbamoyl)oxy)-3-((5-cyano-6-(trifluoromethyl)-1H-benzo[d]imidazol-2-yl)(methyl)amino)benzamide], the pIC50 was < 6.00.

Reference: patent publication US10508088B2, “Methods using HDAC11 inhibitors” (FORMA Therapeutics, Inc., priority 2016, dated 2019)
